Results on 7 compounds are retold here after publication PMC9573605, “Exploring Nitric Oxide (NO)-Releasing Celecoxib Derivatives as Modulators of Radioresponse in Pheochromocytoma Cells” (Molecules, 2022).

Where only a bound is given, the exact number is not on record here.

A word on the IC50: it is the midpoint of a concentration-inhibition curve. A word on the chromatographic logD: it is a lipophilicity value derived from retention on a column.

One data set deals with T1, recombinant human COX-2 (Homo sapiens, UniProt P35354).
T1 construct: purchased Cayman Chemical 700100
T1 sequence (P35354 18-604): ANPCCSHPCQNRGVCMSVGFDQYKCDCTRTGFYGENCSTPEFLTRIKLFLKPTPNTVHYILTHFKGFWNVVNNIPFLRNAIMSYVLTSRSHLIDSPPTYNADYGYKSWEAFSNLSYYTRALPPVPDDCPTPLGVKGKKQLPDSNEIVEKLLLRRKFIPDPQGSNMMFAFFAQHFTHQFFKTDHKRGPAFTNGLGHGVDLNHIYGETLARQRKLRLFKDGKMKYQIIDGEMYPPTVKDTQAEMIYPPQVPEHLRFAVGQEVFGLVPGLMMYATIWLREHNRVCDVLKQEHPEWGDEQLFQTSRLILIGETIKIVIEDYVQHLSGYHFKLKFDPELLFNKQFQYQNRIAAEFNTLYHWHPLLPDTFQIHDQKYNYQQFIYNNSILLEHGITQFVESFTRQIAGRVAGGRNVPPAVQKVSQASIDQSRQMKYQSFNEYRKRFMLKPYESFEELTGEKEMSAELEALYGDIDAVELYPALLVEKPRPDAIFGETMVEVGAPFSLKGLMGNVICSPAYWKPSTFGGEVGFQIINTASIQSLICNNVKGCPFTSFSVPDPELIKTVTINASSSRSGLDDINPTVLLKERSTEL
The data set can be described thus: COX Fluorescent Inhibitor Screening Assay, COX-2. The conditions noted are these: for SI: COX-1 vs COX-2 selectivity index; for IC50: human COX-2. The format is biochemical. The procedure: (§1) COX inhibition (Table 1) was evaluated in vitro using purified ovine COX-1 and recombinant human COX-2 enzyme in a commercially available “COX Fluorescent Inhibitor Screening Assay KIT” (item no. 700100, Cayman Chemical, Ann Arbor, MI, USA). Celecoxib served as a reference and inhibition data concerning 4a, 4e, 5a and 5e were previously reported by us and is herein discussed for comparison.
(§2) COX inhibition activity against ovine COX-1 and human COX-2 was determined using the fluorescence-based COX assay “COX Fluorescent Inhibitor Screening Assay Kit” (catalog number 700100; Cayman Chemical, Ann Arbor, MI, USA) according to the manufacturer’s instructions. Compounds 6a–d were screened at a concentration of 100 µM, all others were assayed in a concentration range of 0.1 nM to 100 μM in duplicate.

A short description of data set [1]: Lipophilicity logD7.4 by HPLC method. The format is physicochemical. The settings on record: HPLC retention on ODP-50 4B column (Shodex Asahipak), phosphate buffer pH 7.4. The procedure:
The lipophilicity of all synthesized compounds was determined as logD7.4, HPLC value by an HPLC method originally described by Donovan and Pescatore.
The logD7.4HPLC value was determined as previously reported by us utilizing an HPLC method originally described by Donovan and Pescatore.

Data set [2] is described as follows: Conversion in NO-assay buffer followed by UPLC. The format is physicochemical. The conditions noted are these: 37 °C. The method, then: The time-dependent degradation behavior of compounds 4f, 5a–f, and 6a–d as well as celecoxib was followed by UPLC analysis over a time course of 8 days (Figure 4). For that, compounds were incubated at 37 °C in the presence or absence of cysteine in the assay buffer used for the Griess assay. Samples were withdrawn at distinct time points (1, 5, 23, 47, 70, and 191 h), diluted into a mixture of acetonitrile/water, and analyzed.
The time-dependent conversion of NO-COXIBs 5a–f and 6a–d as well as reference compounds 4f and celecoxib in the presence or absence of cysteine in assay buffer was investigated by following the degradation of intact compound and identification of selected degradation products by UPLC. For that, samples were incubated at 37 °C in the assay buffer in the presence or absence of cysteine and at the indicated time point; 5 µL assay buffer of each sample was withdrawn and diluted with 45 µL MeCN/water (50/50 v/v). The samples were thoroughly vortexed and then subjected to UPLC analysis. All samples of one time point were analyzed within a total analysis time of approximately 2.5 h. Conversion was monitored at 254 nm using the following UPLC system: column Aquity UPLC® HSS C18 column (Waters Corporation, Milford, MA, USA; 100 × 2.1 mm, 1.8 µm, 130 Å), UPLC H-Class (Waters Corporation, Milford, MA, USA): quaternary gradient pump QSM, autosampler FTN, column heater CHA, and diode array detector PDAeλ, γ detector Gabi Star (Raytest Isotopenmeßgeräte GmbH, Straubenhardt, Germany), flow rate 0.4 mL/min, eluent: (A): 0.1% acetic acid in MeCN/MeOH 1/1/(B): 0.1% acetic acid in H2O; gradient: t0min 45/55–t0.5min 45/55–t5.5min 95/5–t7.0min 95/5–t7.2min 45/55–t8.5min 45/55). For the identification of degradation products, samples taken after 24 h were additionally subjected to HPLC-HRMS analysis using HPLC system 6. In brief, the NO-COXIBs were converted to the respective hydroxymethyl-substituted compounds and in the presence of cysteine additionally to the cysteine adduct, which could be identified by the respective Δm/z shifts. A detailed comparison of calculated and found m/z-signals is given in Supplementary Material Table S1, and copies of HPLC-HRMS chromatograms and selected spectra are given in Supplementary Material Figures S56–S66.

Another data set deals with T2, purified ovine COX-1 (Ovis aries, UniProt P05979).
T2 construct: purchased Cayman Chemical 700100
T2 sequence (P05979 25-600): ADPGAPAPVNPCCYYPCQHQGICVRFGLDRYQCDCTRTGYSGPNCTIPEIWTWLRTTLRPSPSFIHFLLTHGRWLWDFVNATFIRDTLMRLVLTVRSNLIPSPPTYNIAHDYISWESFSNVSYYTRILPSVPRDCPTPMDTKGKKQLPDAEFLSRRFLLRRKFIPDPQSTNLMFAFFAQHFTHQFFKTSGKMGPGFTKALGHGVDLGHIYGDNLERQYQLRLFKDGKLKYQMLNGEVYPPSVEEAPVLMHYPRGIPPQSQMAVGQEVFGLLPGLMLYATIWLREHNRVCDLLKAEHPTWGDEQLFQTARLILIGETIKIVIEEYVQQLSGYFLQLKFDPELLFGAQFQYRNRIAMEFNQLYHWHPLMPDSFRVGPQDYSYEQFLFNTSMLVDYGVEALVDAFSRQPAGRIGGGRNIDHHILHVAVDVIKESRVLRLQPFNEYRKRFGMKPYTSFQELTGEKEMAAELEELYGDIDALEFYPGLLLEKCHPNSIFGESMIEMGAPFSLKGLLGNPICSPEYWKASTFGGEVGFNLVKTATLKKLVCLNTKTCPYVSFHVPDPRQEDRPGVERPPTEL
Kind of data set: COX Fluorescent Inhibitor Screening Assay, COX-1. The format is biochemical. The procedure:
as §1, §2

Setting [3] is: screened at a concentration of 100 µM.

Consider `Cc1ccc(-c2c(Cl)c(CO[N+](=O)[O-])nn2-c2ccc(S(C)(=O)=O)cc2)cc1` [5c, {4-Chloro-1-[4-(methylsulfonyl)phenyl]-5-(p-tolyl)-1H-pyrazol-3-yl}methyl nitrate], for which the SI at recombinant human COX-2 was more than 47. Further, the results for the IC50 on recombinant human COX-2 (0.1 nM to 100 µM in duplicate) and against purified ovine COX-1 (0.1 nM to 100 µM in duplicate) were 2.12 µM and more than 100 µM, respectively. This compound also registered a chromatographic logD in data set [1] of 4.04. Besides, the intact compound in data set [2] (after 8 days (192 h)) is 57%.

Consider `COc1ccc(-c2c(Cl)c(CO[N+](=O)[O-])nn2-c2ccc(S(C)(=O)=O)cc2)cc1` [5d, {4-Chloro-5-(4-methoxyphenyl)-1-[4-(methylsulfonyl)phenyl]-1H-pyrazol-3-yl}methyl nitrate], for which, on recombinant human COX-2, the SI is on record as more than 92. Besides, the results for the IC50 on recombinant human COX-2 (0.1 nM to 100 µM in duplicate) and against purified ovine COX-1 (0.1 nM to 100 µM in duplicate) were 1.08 µM and more than 100 µM, respectively. Also, the chromatographic logD in data set [1] came out at 4.02.

As to `COc1ccc(-c2cc(CO[N+](=O)[O-])nn2-c2ccc(S(N)(=O)=O)cc2)cc1` [5f, [5-(4-Methoxyphenyl)-1-(4-sulfamoylphenyl)-1H-pyrazol-3-yl]methyl nitrate], the SI at recombinant human COX-2 is more than 84. The figures for the IC50 at recombinant human COX-2 (0.1 nM to 100 µM in duplicate) and against purified ovine COX-1 (0.1 nM to 100 µM in duplicate) were 1.18 µM and more than 100 µM, respectively. In data set [1], this compound displayed a chromatographic logD of 3.32.

With `CCC(=O)NS(=O)(=O)c1ccc(-n2nc(CO[N+](=O)[O-])c(Cl)c2-c2ccc(C)cc2)cc1` [6a, {4-Chloro-1-[4-(N-propionylsulfamoyl)phenyl]-5-(p-tolyl)-1H-pyrazol-3-yl}methyl nitrate], the half-maximal inhibitory concentration (IC50) at recombinant human COX-2 (setting [3]) and against purified ovine COX-1 (setting [3]) was more than 100 µM in each case. The same compound returned a chromatographic logD in data set [1] of 2.27.

Take `CCC(=O)NS(=O)(=O)c1ccc(-n2nc(CO[N+](=O)[O-])c(Cl)c2-c2ccc(OC)cc2)cc1` [6b, {4-Chloro-5-(4-methoxyphenyl)-1-[4-(N-propionylsulfamoyl)phenyl]-1H-pyrazol-3-yl}methyl nitrate]: the results for the IC50 at recombinant human COX-2 (setting [3]) and on purified ovine COX-1 (setting [3]) were more than 100 µM and approximately 100 µM, respectively. The same compound registered a chromatographic logD in data set [1] of 2.1.

For the compound `CCC(=O)NS(=O)(=O)c1ccc(-n2nc(CO[N+](=O)[O-])cc2-c2ccc(C)cc2)cc1` [6c, {1-[4-(N-Propionylsulfamoyl)phenyl]-5-(p-tolyl)-1H-pyrazol-3-yl}methyl nitrate], the IC50 on recombinant human COX-2 (setting [3]) and on purified ovine COX-1 (setting [3]) was more than 100 µM each time. In addition, in data set [1], the chromatographic logD was 1.82.

As to `CCC(=O)NS(=O)(=O)c1ccc(-n2nc(CO[N+](=O)[O-])cc2-c2ccc(OC)cc2)cc1` [6d, {5-(4-Methoxyphenyl)-1-[4-(N-propionylsulfamoyl)phenyl]-1H-pyrazol-3-yl}methyl nitrate], the IC50 on recombinant human COX-2 (setting [3]) and against purified ovine COX-1 (setting [3]) was more than 100 µM in each case. The chromatographic logD in data set [1] was found to be 1.55. The intact compound entry was “consumed” in data set [2] (after 70 h, absence of cysteine) and “quantitatively consumed” in data set [2] (after 70 h, presence of cysteine).
